Source: ChEMBL document CHEMBL4017502, “Discovery and Characterization of (R)-6-Neopentyl-2-(pyridin-2-ylmethoxy)-6,7-dihydropyrimido[2,1-c][1,4]oxazin-4(9H)-one (PF-06462894), an Alkyne-Lacking Metabotropic Glutamate Receptor 5 Negative Allosteric Modulator Profiled in both Rat and Nonhuman Primates” (J Med Chem, 2017)

Legend:
[1] = Apparent permeability across apical to basolateral side in RRCK cells at 1 uM after 2 hrs by LC/MS-MS analysis; type: ADME, cell-based, Canis lupus familiaris, MDCKII-LE; conditions: dog, MDCK
[2] = Oral bioavailability cynomolgus monkey […] at 30 mg/kg; type: ADME, organism-based, Macaca fascicularis; conditions: in vivo
[3] = AUC (0 to 24 hrs) at steady state in Crl:CD(SD) rat at 150 mg/kg/day, administered via oral gavage for 14 consecutive days measured on day 13; type: ADME, organism-based; parameters: time < 24 hr, dose 150 mg/kg/day, route oral; conditions: in vivo
[4] = test system: Plasma; assay: Drug metabolism in cynomolgus monkey plasma assessed as N-oxygenated metabolite formation at 150 mg/kg, administered via oral gavage measured on day 12 by UV-LC-MS/MS analysis; type: ADME, organism-based, Macaca fascicularis; conditions: in vivo
[5] = Ratio of unbound drug level in cynomolgus monkey brain to plasma at 600 mg/kg, po measured 7.65 hrs post dose on day 1; type: ADME, organism-based, Macaca fascicularis; conditions: read-out: K(p,uu,brain)
[6] = test system: Plasma; assay: Drug metabolism in cynomolgus monkey plasma assessed as glucuronidated metabolite formation at 150 mg/kg, administered via oral gavage measured on day 12 by UV-LC-MS/MS analysis; type: ADME, organism-based, Macaca fascicularis; conditions: in vivo
[7] = test system: Plasma; assay: Drug metabolism in cynomolgus monkey plasma assessed as monohydroxylated metabolite formation at 150 mg/kg, administered via oral gavage measured on day 12 by UV-LC-MS/MS analysis; type: ADME, organism-based, Macaca fascicularis; conditions: in vivo
[8] = test system: Plasma; assay: Plasma concentration in human; type: ADME, cell-free
[9] = test system: Plasma; assay: Drug metabolism in cynomolgus monkey plasma assessed as metabolite formation at 150 mg/kg, administered via oral gavage measured on day 1 by UV-LC-MS/MS analysis; type: ADME, organism-based, Macaca fascicularis; conditions: in vivo
[10] = Volume of distribution at steady state in cynomolgus monkey at 1 mg/kg, iv via single bolus administration; type: ADME, organism-based, Macaca fascicularis; conditions: in vivo, read-out: Vdss
[11] = AUC (0 to 24 hrs) at steady state in Crl:CD(SD) rat at 500 mg/kg/day, administered via oral gavage for 14 consecutive days measured on day 13; type: ADME, organism-based; parameters: dose 500 mg/kg/day, time < 24 hr, route oral; conditions: in vivo
[12] = Oral bioavailability in Sprague-Dawley rat at 25 mg/kg; type: ADME, organism-based; conditions: in vivo
[13] = Ratio of free AUC (0 to 4 hrs) in Sprague-Dawley rat brain to plasma at 0.32 to 1 mg/kg, sc; type: ADME, organism-based
[14] = AUC (0 to 24 hrs) at steady state in cynomolgus monkey at 50 mg/kg/day, administered via oral gavage for 14 consecutive days measured on day 13; type: ADME, organism-based, Macaca fascicularis; parameters: time < 24 hr, dose 50 mg/kg/day, route oral; conditions: in vivo
[15] = AUC (0 to 24 hrs) at steady state in Crl:CD(SD) rat at 50 mg/kg/day, administered via oral gavage for 14 consecutive days measured on day 13; type: ADME, organism-based; parameters: dose 50 mg/kg/day, time < 24 hr, route oral; conditions: in vivo
[16] = AUC (0 to 24 hrs) at steady state in cynomolgus monkey at 150 mg/kg/day, administered via oral gavage for 14 consecutive days measured on day 13; type: ADME, organism-based, Macaca fascicularis; parameters: time < 24 hr, dose 150 mg/kg/day, route oral; conditions: in vivo
[17] = Bioavailability in 6 MPTP-treated dyskinetic PD-LID rhesus monkey model at 2 mg/kg administered BID; type: ADME, organism-based, Macaca mulatta; conditions: in vivo
[18] = test system: Plasma; assay: Drug metabolism in cynomolgus monkey plasma assessed as O-dealkylated metabolite formation at 150 mg/kg, administered via oral gavage measured on day 12 by UV-LC-MS/MS analysis; type: ADME, organism-based, Macaca fascicularis; conditions: in vivo
[19] = AUC (0 to 24 hrs) at steady state in cynomolgus monkey at 600 mg/kg/day, administered via oral gavage for 14 consecutive days measured on day 13; type: ADME, organism-based, Macaca fascicularis; parameters: dose 600 mg/kg/day, time < 24 hr, route oral; conditions: in vivo
[20] = Volume of distribution at steady state in Sprague-Dawley rat at 1 mg/kg, iv via single bolus administration; type: ADME, organism-based; conditions: in vivo, read-out: Vdss
[21] = test system: Plasma; assay: Drug metabolism in Crl:CD(SD) rat plasma assessed as metabolite formation at 150 mg/kg, administered via oral gavage measured on day 1 by UV-LC-MS/MS analysis; type: ADME, organism-based; conditions: in vivo
[22] = Volume of distribution at steady state in 6 MPTP-treated dyskinetic PD-LID rhesus monkey at 2 mg/kg administered BID; type: ADME, organism-based, Macaca mulatta; conditions: in vivo, read-out: Vdss

Compound `O=c1cc(SCc2ccccn2)nc2ccccn12` has a Papp A→B at 2 h, 1 µM [1] of 26 ×10⁻⁶ cm/s.

In the case of `CC(C)(C)C[C@@H]1COCc2nc(OCc3ccccn3)cc(=O)n21`, the bioavailability [2] was 11%, the AUC at 24 h [3] was 117000 ng·h/mL and the Drug metabolism [4] was “Metabolite_Detected”. The Kp uu at 7.65 h [5] was 0.89, the Drug metabolism [6] was “Metabolite_Detected” and the Drug metabolism [7] was “Metabolite_Detected”. For the same compound, the Cp [8] was 31 ng/mL, the Drug metabolism [9] was “Metabolite_Detected” and the Vd [10] was 1.24 L/kg. It also gave an AUC at 24 h [11] of 313000 ng·h/mL, a bioavailability [12] of 20% and a Kp uu [13] of 1.22. For the same compound, the AUC at 24 h [14] was 3680 ng·h/mL, the AUC at 24 h [15] was 23200 ng·h/mL and the AUC at 24 h [16] was 45400 ng·h/mL. For the same compound, the bioavailability [17] was 91%, the Papp A→B at 2 h, 1 µM [1] was 29 ×10⁻⁶ cm/s and the Drug metabolism [18] was “Metabolite_Detected”. For the same compound, the AUC at 24 h [19] was 41500 ng·h/mL, the Vd [20] was 1.29 L/kg and the Drug metabolism [21] was “Metabolite_Detected”. The Vd [22] was 1 L/kg.

In the case of `N#Cc1cccc(COc2cc(=O)n3c(n2)COC[C@H]3Cc2ccccc2)c1`, the Papp A→B at 2 h, 1 µM [1] was 26 ×10⁻⁶ cm/s.

Compound `O=c1cc(OCc2cccc(Cl)c2)nc2n1[C@H](Cc1ccccc1)COC2` has a Papp A→B at 2 h, 1 µM [1] of 4 ×10⁻⁶ cm/s.

In the case of `O=c1cc(OCCC2CC2)nc2n1[C@H](Cc1ccccc1)COC2`, the Papp A→B at 2 h, 1 µM [1] was 22 ×10⁻⁶ cm/s.

With `Cc1cccc(COc2cc(=O)n3c(n2)COC[C@H]3Cc2ccccc2)n1` the Papp A→B at 2 h, 1 µM [1] was 22 ×10⁻⁶ cm/s.

With `O=c1cc(OCc2cccc(Cl)c2)nc2ccc(Oc3cccnc3)cn12` the Papp A→B at 2 h, 1 µM [1] was 7 ×10⁻⁶ cm/s.

`Cc1csc(COc2cc(=O)n3c(n2)COC[C@H]3Cc2ccccc2)n1` showed a Papp A→B at 2 h, 1 µM [1] of 26 ×10⁻⁶ cm/s.

`O=c1cc(OCc2cccc(Cl)c2)nc2n1CCCC2` showed a Papp A→B at 2 h, 1 µM [1] of 26 ×10⁻⁶ cm/s.

Compound `O=c1cc(OCc2cccc(Cl)c2)nc2ccccn12` has a Papp A→B at 2 h, 1 µM [1] of 16 ×10⁻⁶ cm/s.

With `CC(C)(C)C[C@@H]1COCc2nc(OCc3cccc(C#N)c3)cc(=O)n21` the Papp A→B at 2 h, 1 µM [1] was 25 ×10⁻⁶ cm/s.

`CC(C)C[C@@H]1COCc2nc(OCc3cccc(C#N)c3)cc(=O)n21` gave a bioavailability [2] of 43%, a Vd [10] of 2.23 L/kg and a bioavailability [12] of 62%. The Kp uu [13] was 2.19, the Papp A→B at 2 h, 1 µM [1] was 28 ×10⁻⁶ cm/s and the Vd [20] was 2.14 L/kg.

With `O=c1cc(OCc2cccc(Cl)c2)nc2n1[C@@H](Cc1ccccc1)COC2` the Papp A→B at 2 h, 1 µM [1] was 4 ×10⁻⁶ cm/s.

Work on `Cc1cccc(COc2cc(=O)n3cc(Oc4cccnc4)ccc3n2)n1` yielded a Papp A→B at 2 h, 1 µM [1] of 24 ×10⁻⁶ cm/s.

`CC(C)C[C@@H]1COCc2nc(OCc3ccccn3)cc(=O)n21` showed a Papp A→B at 2 h, 1 µM [1] of 39 ×10⁻⁶ cm/s.

`O=c1cc(OCc2ccccn2)nc2n1[C@H](Cc1ccccc1)COC2` showed a Papp A→B at 2 h, 1 µM [1] of 28 ×10⁻⁶ cm/s.

`O=c1cc(OCc2cccc(Cl)c2)nc2n1CCOC2` showed a Papp A→B at 2 h, 1 µM [1] of 31 ×10⁻⁶ cm/s.
